Assay results: patent US20040176468A1 (Wyeth, priority 1999, published 2004)
Where a name gives a salt, the structure may show the parent alone.

Molecular target: NE uptake (Rattus norvegicus, UniProt Q63380)
Test: Neurotransmitter uptake inhibition: NE uptake, crude synaptosomal preparation
Type: biochemical
Details: rat cortex crude synaptosomal preparation; for IC50: 0.1 μM 3H-NE, 37° C. for 6 minutes
Experimental: Male Sprague-Dawley rats (180-260 g, Charles River) were used in all neurochemical assays. Rats were housed in temperature-controlled quarters on a 12 hr light/12 hr dark cycle with free access to food and water.
Neurotransmitter Uptake Inhibition
Uptake experiments were performed using a crude synaptosomal preparation made from the brain tissue of adult male Sprague-Dawley rats. The cortex of 1 rat for NE and 5-HT uptake was removed on ice and homogenized in 20 volumes of 0.32 M sucrose/g tissue weight using a Potter-Elvehjem teflon homogenizer (3 strokes at 840 rpm). The homogenate was then centrifuged for 12 minutes at 1,000×g at 0-4° C. The resulting supernatant was decanted into a chilled glass beaker and kept on ice until assayed. Protein concentration was determined by the method of Lowry et al. (1).
For these experiments, all compounds were run in duplicate in concentrations of 0.003-30.0 μM. Each tube received buffer (790 μl in drug tubes, 800 μl in control tubes), 10 μl of drug or standard. (0.1 μM DMI for NE uptake and 3.0 μM zimelidine HCl for 5-HT uptake), 100 μl isotope (0.1 μM ^3H—NE and 0.05 μM ^14C-5-HT), and 100 μl tissue. Tubes were incubated at 37° C. for 6 minutes. Incubation was terminated by the addition of 2.5 ml buffer followed by vacuum filtration using a Brandel filtration manifold with Whatman GF/B glass fiber filters and a second wash with 2.5 ml buffer. Filters were added to 10 ml Hydrofluor, shaken for 15 minutes and counted in a Packard 460CD scintillation counter equipped with dual-label dpm data reduction. Results were expressed as pmol uptake/mg protein/min.

Chain of NE uptake (Q63380 1-617): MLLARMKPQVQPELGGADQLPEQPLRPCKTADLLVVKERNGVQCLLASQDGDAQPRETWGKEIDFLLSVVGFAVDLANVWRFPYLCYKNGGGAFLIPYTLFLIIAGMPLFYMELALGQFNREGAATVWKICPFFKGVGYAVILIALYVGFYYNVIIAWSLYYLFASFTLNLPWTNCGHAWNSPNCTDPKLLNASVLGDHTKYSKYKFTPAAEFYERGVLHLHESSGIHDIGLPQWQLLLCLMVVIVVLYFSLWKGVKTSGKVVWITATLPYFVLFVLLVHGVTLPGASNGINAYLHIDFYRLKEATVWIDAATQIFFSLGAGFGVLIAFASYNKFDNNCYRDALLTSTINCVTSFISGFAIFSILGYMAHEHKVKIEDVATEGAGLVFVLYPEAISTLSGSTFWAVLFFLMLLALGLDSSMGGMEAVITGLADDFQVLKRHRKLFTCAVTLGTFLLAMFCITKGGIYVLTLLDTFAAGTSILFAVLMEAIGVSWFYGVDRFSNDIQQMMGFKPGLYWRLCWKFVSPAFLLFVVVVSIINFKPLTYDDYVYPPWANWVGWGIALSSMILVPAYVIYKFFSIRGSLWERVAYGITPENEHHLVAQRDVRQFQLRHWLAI

SMILES | inhibition at 0.3 µM (at 0.3 μM) | IC50
CN(C)CC(c1ccc(O)cc1)C1(O)CCCCC1 (racemic) [O-Desmethyl venlafaxine, 4-[1-(2-dimethylamino)-2-(1-hydroxycyclohexyl)-ethyl]-phenol] | 75% | –
CN(C)C[C@H](c1ccc(O)cc1)C1(O)CCCCC1 [(+)O-Desmethyl venlafaxine, S (+)-4-[2-(Dimethylamino)-1-(1-hydroxycyclohexyl)ethyl]phenol fumarate hydrate salt] | – | 720 nM
CN(C)C[C@@H](c1ccc(O)cc1)C1(O)CCCCC1 [(−)O-Desmethyl venlafaxine, R(−)-4-[2-(Dimethylamino)-1-(1-hydroxycyclohexyl)ethyl]phenol fumarate hydrate salt] | – | 270 nM
